For the test, the target named is T1, hα7-wt nAChR-expressing GH4Cl cells (Homo sapiens, UniProt P36544).
T1 construct: expressed in transfected cells
Briefly: Patch-clamp current recording (whole-cell), potentiation of choline 1 mM response, PAM type. The following applies: for EC50: according to Ex. D.2, "<5" = no top plateau reached at maximal concentration, read-out: Potency (pEC50) (converted); for Pam type: patch-clamp current recording, 1 mM choline. It is filed as cell-based. Further details: key to Pam type: Type 0 compounds minimally enhance the effect size of the current elicited by 1 mM choline.; Type 1 compounds enhance the effect size of the current elicited by 1 mM choline but minimally alter the kinetics of the receptor.; Type 2 compounds enhance the effect size of the current elicited by 1 mM choline while reducing the rate and/or the extent of desensitization.; Type 3 compounds enhance the effect size of the current elicited by 1 mM choline. When tested at higher concentrations up to 10 μM they completely inhibit desensitization, in particular a 1 mM choline application of 250 milliseconds.; Type 4 compounds allow for an initial desensitization of the receptor followed by a re-opening of the receptor during agonist application. As for the experimental part: The compounds of the present invention are classified as type 1-4, based on qualitative kinetic properties, as determined by whole-cell voltage-clamp recordings. This classification is based on the effect of an α7 PAM compound, as described hereinbefore, on the signal elicited by an agonist application. In particular, said agonist is choline at a concentration of 1 mM. In a preferred experimental setting, said α7 PAM compound and choline are simultaneously applied to the cell, as described hereinafter. Desensitization is defined as the closure of the receptor upon activation during the application of the agonist in whole-cell voltage-clamp electrophysiology measurements seen as the reduction of the […] current after initial activation by the agonist.
The definition of the PAM types 1-4 is described hereinafter: • Type 0 compounds minimally enhance the effect size of the current elicited by 1 mM choline. • Type 1 compounds enhance the effect size of the current elicited by 1 mM choline but minimally alter the kinetics of the receptor. In particular, the rate and the extent of desensitization, elicited by the agonist, is not affected. The compound-modulated response to 1 mM choline, therefore, is a close to linear scaling of the 1 mM choline response in absence of the α7 PAM compound. • Type 2 compounds enhance the effect size of the current elicited by 1 mM choline while reducing the rate and/or the extent of desensitization. • Type 3 compounds enhance the effect size of the current elicited by 1 mM choline. […] At low-potency concentrations of the α7 PAM compound, the agonist-induced activation, which is followed by desensitization, can still be separated from the compound-induced re-opening as an initial inward current-maximum. At higher potency concentrations of the α7 PAM compound, the re-opening occurs faster than the closure due to desensitization so that the initial current-maximum disappears.
Patch-clamp Current Recording
Patch-clamp recording from mammalian cells has provided a powerful means of assessing the function of membrane-bound proteins thought to be subunits of ligand-gated ion channels. Activation of such proteins by endogenous or exogenous ligands cause opening of a pore associated with the receptor through which ions flow down their electrochemical gradient. In the case of the hα7-wt nAChR-expressing GH4Cl recombinant cell line the preferential permeability to calcium of this receptor means that calcium flows into the cell upon activation by ACh, choline and other nicotinic ligands giving rise to a calcium current. Since this receptor rapidly desensitizes in the presence of agonist it is important an application system is used which is capable of very rapid switching of solutions (<100 ms) to prevent partial or full desensitisation of receptor responses coincident with the time of agonist application. Consequently, a second convenient technique to assess the enhancement of nicotinic efficacy is patch-clamp recording from hα7-wt nAChR-expressing GH4Cl cells coupled with a rapid-application system.
• a) Assay buffers • The external recording solution consisted of 152 mM NaCl, 5 mM KCl, 1 mM MgCl2, 1 mM Calcium, 10 mM HEPES; pH 7.3. The internal recording solution consisted of 140 mM CsCl, 10 mM HEPES, 10 mM EGTA, 1 mM MgCl2, pH 7.3. • b) Patch-clamp recording was carried out using a Patch-clamp amplifier (Multiclamp 700A, Axon Instruments, Calif., USA). hα7-wt nAChR-expressing GH4Cl cells were patch-clamp in the whole cell configuration (Hamill et al, 1981) with a borosilicate glass electrode of 1.5-3 MΩ tip resistance when filled with the internal recording solution. Recordings were made on cells with membrane resistance >500 MΩ and more preferably 1GΩ and series resistance <15 MΩ with at least 60% series resistance compensation. […]

The structures appear in SMILES notation.

T1 sequence (P36544 23-502): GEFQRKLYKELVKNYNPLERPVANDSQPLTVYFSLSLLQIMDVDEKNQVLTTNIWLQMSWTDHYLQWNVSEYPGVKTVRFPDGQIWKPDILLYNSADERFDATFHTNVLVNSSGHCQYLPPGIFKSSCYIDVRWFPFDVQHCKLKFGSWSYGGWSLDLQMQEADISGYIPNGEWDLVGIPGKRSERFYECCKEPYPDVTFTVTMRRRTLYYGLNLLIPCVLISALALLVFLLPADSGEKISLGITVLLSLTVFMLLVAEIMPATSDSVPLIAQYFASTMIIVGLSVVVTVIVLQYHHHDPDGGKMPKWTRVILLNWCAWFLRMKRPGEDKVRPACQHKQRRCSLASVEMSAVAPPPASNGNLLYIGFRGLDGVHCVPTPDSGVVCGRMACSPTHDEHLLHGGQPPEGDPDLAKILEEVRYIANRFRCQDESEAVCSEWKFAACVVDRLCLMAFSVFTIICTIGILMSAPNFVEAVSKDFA

On to `O=C(CCc1nc(Nc2cccc(OC(F)(F)F)c2)nn1-c1cccnc1)N1CCC(O)C1` (stereo not drawn) [E79], for which the EC50 is 1260 nM.
`CC[C@H](O)Cc1nc(Nc2cccc(C(F)(F)F)c2)nn1-c1ccnc(C)c1` [E204]: the EC50 was 562 nM and the Pam type was 0.
For `COc1ccc(-n2nc(Nc3ccc(F)c(C(F)(F)F)c3)nc2CCC(=O)N(C)C)cc1OC` [E65], in that order: 70.8 nM and 4.
For `CN(C)C(=O)CCc1nc(Nc2ccc(F)c(F)c2)nn1-c1ccc2c(c1)OCCO2` [E3, 3-[(3,4-Difluorophenyl)amino]-1-(2,3-dihydro-1,4-benzodioxin-6-yl)-N,N-dimethyl-1H-1,2,4-triazole-5-propanamide], in that order: 43.7 nM and 4.
For `CNC(=O)CCc1nc(Nc2ccc(F)c(F)c2)nn1-c1ccc(OC)cc1` [E43], in that order: 2000 nM and 2.
As to `CNC(=O)Cc1nc(Nc2ccc(F)c(F)c2F)nn1-c1cc(C)nc(C)c1` [E209], the EC50 was 724 nM and the Pam type is on record as 2.
Take `O=C(CCc1nc(Nc2cccc(OC(F)(F)F)c2)nn1-c1cccnc1)N1CCCC1` [E78]: the EC50 is 309 nM.
With `CC[C@H](O)Cc1nc(Nc2ccc(OC)cc2)nn1-c1cc(C)nc(C)c1` [E203], the EC50 was 1350 nM and the Pam type came out at 2.
On the same counts, the results for `COc1ccc(-n2nc(Nc3ccc(F)c(F)c3)nc2CCC(=O)N(C)C)cc1` [E63] are 60.3 nM and 4.
For `CCOC(=O)CCc1nc(Nc2cccc(OC(F)(F)F)c2)nn1-c1cccnc1` [E108], the EC50 is 1350 nM.
With `CN(C)C(=O)CCc1nc(Nc2cccc(OC(F)(F)F)c2)nn1-c1cccnc1` [E71], the EC50 is 617 nM and the Pam type was determined as 4.
On to `CC[C@H](O)Cc1nc(Nc2cccc(Cl)c2F)nn1-c1cc(C)nc(C)c1` [E172], for which the EC50 is 302 nM and the Pam type turned out to be 2.
On to `CNC(=O)CCc1nc(Nc2ccc(F)c(C(F)(F)F)c2)nn1-c1ccc(OC)cc1` [E44], for which the EC50 is 661 nM.
As to `Cc1cc(-n2nc(Nc3cc(F)c(F)c(F)c3)nc2CCC(=O)N(C)C)cc(C)n1` [E264], the EC50 was about 28.8 nM.
As for `CC[C@H](O)Cc1nc(Nc2cc(Cl)cc(OC)c2)nn1-c1cc(C)nc(C)c1` [E205, (alphaS)-3-[(3-chloro-5-methoxyphenyl)amino]-1-(2,6-dimethyl-4-pyridinyl)-alpha-ethyl-1H-1,2,4-triazole-5-ethanol], the EC50 is 155 nM and the Pam type is listed as 2.
For `CC[C@H](O)Cc1nc(Nc2cc(F)cc(OC)c2)nn1-c1ccnc(C)c1` [E186, (alphaS)-alpha-ethyl-3-[(3-fluoro-5-methoxyphenyl)amino]-1-(2-methyl-4-pyridinyl)-1H-1,2,4-triazole-5-ethanol], in that order: 1020 nM and 4.
`CNC(=O)CCc1nc(Nc2ccc(F)c(F)c2)nn1-c1cccnc1` [E48]: the EC50 was over 10000 nM.
Regarding `CN(C)C(=O)CCc1nc(Nc2ccc3c(c2)OC(F)(F)O3)nn1-c1ccc2c(c1)OCCO2` [E176], the EC50 was 26.9 nM and the Pam type stood at 4.
On the same counts, the results for `CN(C)C(=O)CCc1nc(Nc2ccc(F)c(C(F)(F)F)c2)nn1-c1ccc2c(c1)OCCO2` [E77] are 39.8 nM and 4.
On the same counts, the results for `CNC(=O)Cc1nc(Nc2ccc(F)c(F)c2)nn1-c1ccc2c(c1)OCCO2` [E36] are 1740 nM and 4.
For `CNC(=O)CCc1nc(Nc2ccc(F)c(F)c2)nn1-c1ccc2c(c1)OCCO2` [E2, 3-[(3,4-Difluorophenyl)amino]-1-(2,3-dihydro-1,4-benzodioxin-6-yl)-N-methyl-1H-1,2,4-triazole-5-propanamide], in that order: 1020 nM and 3.
As to `COc1ccc(-n2nc(Nc3ccc(F)c(F)c3)nc2CCC(=O)N(C)C)cc1OC` [E64], the EC50 is 525 nM and the Pam type is listed as 4.
For `COc1ccc(-n2nc(Nc3cc(F)c(F)c(Br)c3)nc2CCC(=O)N(C)C)cc1` [E155], in that order: 28.8 nM and 1.
On the same counts, the results for `Cc1ncccc1-n1nc(Nc2cccc(OC(F)(F)F)c2)nc1CCC(=O)N(C)C` [E5, N,N-Dimethyl-1-(2-methyl-3-pyridinyl)-3-[[3-(trifluoromethoxy)phenyl]amino]-1H-1,2,4-triazole-5-propanamide] are 1170 nM and 4.
Take `CN(C)C(=O)CCc1nc(Nc2ccc(F)c(C(F)(F)F)c2)nn1-c1cccnc1` [E72]: the EC50 is 339 nM.
On the same count and under the same terms, next, `CCOC(=O)CCc1nc(Nc2ccc(F)c(F)c2)nn1-c1ccc2c(c1)OCCO2` [E114]: 151 nM.
For the compound `CNC(=O)CCc1nc(Nc2ccc(F)c(C(F)(F)F)c2)nn1-c1ccc2c(c1)OCCO2` [E55], the EC50 is 525 nM and the Pam type stood at 4.
On the same counts, the results for `CN(C)C(=O)CCc1nc(Nc2cccc(OC(F)(F)F)c2)nn1-c1ccc2c(c1)OCCO2` [E170] are 39.8 nM and 4.
Turning to `CN(C)C(=O)CCc1nc(Nc2cccc(OC(F)(F)F)c2)nn1-c1ccncc1` [E69], the EC50 is 324 nM.
As for `Cc1ccc(-n2nc(Nc3ccc4c(c3)OC(F)(F)O4)nc2CCC(=O)N(C)C)cn1` [E117], the EC50 was 191 nM and the Pam type is reported as 4.
Regarding `CCOC(=O)CCc1nc(Nc2ccc(F)c(C(F)(F)F)c2)nn1-c1ccc2c(c1)OCCO2` [E115], the EC50 is 158 nM.
Still for that read-out and setting: in the case of `CNC(=O)CCc1nc(Nc2ccc(F)c(C(F)(F)F)c2)nn1-c1ccc(OC)c(OC)c1` [E46] it was 1020 nM.
With `Cc1cc(-n2nc(Nc3cccc(Cl)c3F)nc2CC(=O)NCC2CC2)cc(C)n1` [E154], the EC50 was 219 nM and the Pam type worked out at 2.
For `CCNc1cc(-n2nc(Nc3ccc(F)c(F)c3)nc2C[C@@H](O)CC)ccn1` [E136], in that order: 155 nM and 3.
As for `CNC(=O)CCc1nc(Nc2ccc(F)c(F)c2)nn1-c1ccncc1` [E52], the EC50 is over 30200 nM.
As to `CC[C@H](O)Cc1nc(Nc2cc(Cl)cc(OC)c2)nn1-c1ccnc(C)c1` [E206], the EC50 was 170 nM and the Pam type worked out at 4.
On the same counts, the results for `CN(C)C(=O)CCc1nc(Nc2cc(F)c(F)c(Br)c2)nn1-c1ccc2c(c1)OCCO2` [E151] are 38 nM and 4.
On the same counts, the results for `COc1ccc(-n2nc(Nc3ccc(F)c(C(F)(F)F)c3)nc2CCC(=O)N(C)C)cc1` [E62] are 30.2 nM and 4.
As to `CC[C@H](O)Cc1nc(Nc2ccc(F)c(F)c2F)nn1-c1cc(C)nc(C)c1` [E127, (alphaS)-1-(2,6-dimethyl-4-pyridinyl)-alpha-ethyl-3-[(2,3,4-trifluorophenyl)amino]-1H-1,2,4-triazole-5-ethanol], the EC50 is 269 nM and the Pam type was 2.
With `CN(C)C(=O)CCc1nc(Nc2ccc(F)c(C(F)(F)F)c2)nn1-c1ccncc1` [E68], the EC50 is 105 nM.
Regarding `COc1ccc(-n2nc(Nc3ccc4c(c3)OC(F)(F)O4)nc2CCC(=O)N(C)C)cc1` [E178], the EC50 was 36.3 nM and the Pam type is 4.
